Assay results reported in patent US4840941A, “Method for inhibiting infection of human T-cells” (Kabushiki Kaisha Ueno Seiyaku Oyo Kenkyujo, priority 1986, dated 1989).

Key:
[1] = test system: reverse transcriptase (authentic sample) derived from Avian Myeloblastosis Virus; assay: Inhibition of reverse transcriptase activity (AMV); type: biochemical; details: AMV enzyme; 1, 0.1 and 0.01 μg/ml
Description: Test substances were assayed for inhibition against the enzyme activity of reverse transcriptase (authentic sample) derived from Avian Myeloblastosis Virus (abbrev. AMV), a kind of retrovirus. Five microliters of […] (template RNA), 4 μl of (dT)12-18 (primer DNA), and 1 μl of water were mixed with 5 μl of 0.5M Tris-CHl (pH 8.4) including 0.1% triton X-100, 5 μl of […], 5 μl of 20 mM-DDT, 5 μl of water, and [^3 H]-TTP (tritium labeled thymidine triphosphate). To this mixture, test substances in solutions (final concentrations: 1, 0.1, and 0.01 μg/ml, 5 μl) or buffer solutions (control, 5 μl) at various doses were added. Then, 5 μl (one unit) of the authentic reverse transcriptase derived from AMV was added and the reaction mixture was incubated at 37° C. for 30 minutes. The reaction was stopped by addition of trichloroacetic acid, and after filtering the reaction mixture, the radioactivity of the polymerized (^3 H-T)n retained on the filter was measured using a liquid scintillation counter. As the test substances, sodium dextran sulfate (molecular weight: 5000), same (molecular weight: 8000), same (molecular weight: 500000), fucoidin, κ-carrageenan, λ-carrageenan, and .iota.-carrageenan were used.
The effects of the test substances on the reverse transcriptase activity of AMV were evaluated by the method described in Example 1.

[2] = test system: HTLV-III; assay: Anti-AIDS activity, infected cell rate of MT-4 cells infected with HTLV-III at 6th day; type: cell-based; details: for anti-AIDS virus activity: MT-4 cells, HTLV-III
Description: To MT-4 cells (30×10^4 /ml) cultured in RPMI-1640 medium containing 10% bovine serum, was inoculated HTLV-III, and the suspension was incubated at 37° C. for 1 hour to cause the adsorption of the virus. The cell:virus ratio was 500:1. The cells were then washed, and cultured with or without various doses of the test substances (same as those of Example 1) at 37° C. under 5% CO2 for 3 days, after which cell growth, viability, and percentage of infected cells were recorded. The infected cells were distinguished from the uninfected cells by indirect immuno-fluorescence method. Thus; the cultured cells were fixed with cold methanol on a slide glass, reacted with antibody to the HTLV-III-specific antigens, and further with the secondary antibody (having fluorescent label). The results are shown in FIGS. 9-29, wherein, , and show the controls without virus; , and show the infection experiments with HTLV-III. The cell growth is indicated in number of cells, the viability (%) in number of viable cells×100/number of total cells, and the infected cell rate (%) in number of fluorescent-positive cells×100/number of total cells.
In order to examine the correlation between the anti-AIDS virus activity and the molecular structure (especially, molecular weight and S-content or number of sulfate group in this case) of various test substances including those used in Examples 1-7, the anti-AIDS activities were evaluated for the various naturally occurring polysaccharides, polysaccharides having sulfate group, mucopolysaccharides, mucopolysaccharide sulfate, and mucopolysaccharide polysulfate. Further, similar experiments were carried out with various other sulfates which were synthetically obtained. The experimental procedures employed are identical to that in preceding experiments. The cultured MT-4 cells were infected with HTLV-III and the inhibitory effects of various test subsutances on the infected cell rate (number of fluorescent cell×100/ total cell, %) were determined at 6th day.

[3] = test system: Friend leukemia virus (F-MuLV); assay: Anti-Friend leukemia virus activity, XC-plaque assay, Procedure 1; type: cell-based; details: for Number of plagues per dish: control 168
Description: (§1) Anti-FMuLV activity of dextram sulfate (molecular weight: 7000-8000, S-content: 17-20%) was determined by a XC-plaque assay method. BALB3T3 cells were cultured in adhesive form in a 35 mm-dish at 5×10^4 cells/dish (2 ml). After removing the culture medium, a fresh medium with or without indicating concentrations of the test substance (1 ml each) and 0.2 ml of the virus preparation were charged, and the cells were cultured overnight. On the following day, the culture media were replaced with those (2 ml) containing or not containing the above substances, the incubation was continued for three additional days to progress the infection and replication of the virus. After the removal of the medium, the further progression of viral replication was stopped by UV irradiation. To this dish, the suspension of XC-cells (2 ml) was added and cultured for three days and the plaque formation produced by the virus particle induced cell-fusion, was observed.

[4] = test system: Friend leukemia virus (F-MuLV); assay: Anti-Friend leukemia virus activity, XC-plaque assay, Procedure 2; type: cell-based; details: for Number of plaques per dish: control 35
Description: as §1
Procedure 1 was repeated except that after adsorption of the virus in the medium without DS, the non-adsorbed viruses were removed and the culture was carried out in the medium (2 ml) containing or not containing DS.

[5] = Acute toxicity (LD50) in mice; type: in vivo
[6] = test system: MT-4 cells; assay: Cytotoxicity, proliferation and viability of MT-4 cells without virus; type: cell-based, human; details: no virus
Description: MT-4 cells were cultured with or without 1-100 μg/ml of each test substance which is the same as in Example 1 and 3 and the proliferation and viability of cells were recorded.
Without the virus, MT-4 cells were cultured in the same manner as in Example 4 except the test sample was heparin, and proliferation and viability of cells were recorded.

[7] = 10 μg/ml, 6th day, control 100%
[8] = 100 μg/ml, 6th day, control 100%
[9] = 1000 μg/ml, 6th day, control 100%
[10] = 10 μg/ml, 6th day, control 100%, 8640 min
[11] = 100 μg/ml, 6th day, control 100%, 8640 min

Compound: keratan polysulfate
- reverse transcriptase inhibition activity [1]: stronger activity than the natural substances

Compound: Chitin
- Infected cell (%) [2, 7]: 100%
- Infected cell (%) [2, 8]: 100%

Compound: Chitosan sulfate
- Infected cell (%) [2, 7]: 1%
- Infected cell (%) [2, 8]: 1%
- anti-AIDS virus activity ([2]; 6th day): particularly strong anti-AIDS virus activities

Compound: Chitin sulfate
- Infected cell (%) [2, 7]: 100%
- Infected cell (%) [2, 8]: 81%

Compound: Hyaluronic acid sulfate
- Infected cell (%) [2, 7]: 100%
- Infected cell (%) [2, 8]: 70%

Compound: methylcellulose
- anti-AIDS virus activity ([2]; 6th day): neither methylcellulose showed any anti-AIDS virus activities

Compound: Heparitin sulfate
- Infected cell (%) [2, 7]: 100%
- Infected cell (%) [2, 8]: 90%

Compound: Hyaluronic acid
- Infected cell (%) [2, 7]: 100%
- Infected cell (%) [2, 8]: 100%

Compound: pectin
- anti-AIDS virus activity ([2]; 6th day): neither methylcellulose showed any anti-AIDS virus activities

Compound: Glucose-polysulfate
- Infected cell (%) [2, 7]: 100%
- Infected cell (%) [2, 8]: 100%
- Infected cell (%) [2, 9]: 100%

Compound: Dermatan sulfate
- Infected cell (%) [2, 7]: 100%
- Infected cell (%) [2, 8]: 80%

Compound: Dextran [Dextran (molecular weight 9,000)]
- Infected cell (%) [2, 7]: 100%
- Infected cell (%) [2, 8]: 100%

Compound: O=C[C@H](O)[C@@H](O)[C@H](O)[C@H](O)COS(=O)(=O)O [Glucose-6-sulfate]
- Infected cell rate (% of total cells) at 10 µg/mL ([2]; Human immunodeficiency virus 1, MT4, 144 h, 10 μg/ml, 6th day, control 100%): 100%
- Infected cell rate (% of total cells) at 100 µg/mL ([2]; Human immunodeficiency virus 1, MT4, 144 h, 100 μg/ml, 6th day, control 100%): 100%
- Infected cell rate (% of total cells) at 1000 µg/mL ([2]; Human immunodeficiency virus 1, MT4, 144 h, 1000 μg/ml, 6th day, control 100%): 100%

Compound: κ-carrageenan [Carrageenan 20%enan 80% + λ]
- Infected cell (%) [2, 7]: 95%
- Infected cell (%) [2, 8]: 1%

Compound: λ-Carrageenan
- Infected cell (%) [2, 7]: 3%
- Infected cell (%) [2, 8]: 1%
- anti-AIDS virus activity ([2]; 6th day): particularly strong anti-AIDS virus activities

Compound: Sodium dextran sulfate
- plaque formation ([3]; 100 μg/ml of DS): not detected
- inhibition of the formation of plaque ([3]; 1-100 μg/ml): ≥ 90%
- Inhibition ([3]; DS 1 μg/ml): 92%
- Number of plagues per dish ([3]; DS 1 μg/ml): 14
- Inhibition ([3]; DS 5 μg/ml): 93%
- Number of plagues per dish ([3]; DS 5 μg/ml): 12
- Inhibition ([3]; DS 10 μg/ml): 93%
- Number of plagues per dish ([3]; DS 10 μg/ml): 11
- Inhibition ([3]; DS 50 μg/ml): 92%
- Number of plagues per dish ([3]; DS 50 μg/ml): 13
- Inhibition ([3]; DS 100 μg/ml): 96%
- Number of plagues per dish ([3]; DS 100 μg/ml): 6
- Inhibition ([3]; DS 1000 μg/ml): 100%
- Number of plagues per dish ([3]; DS 1000 μg/ml): 0
- Inhibition ([4]; DS 0.01 μg/ml): 6%
- Number of plaques per dish ([4]; DS 0.01 μg/ml): 33
- Inhibition ([4]; DS 0.1 μg/ml): 45%
- Number of plaques per dish ([4]; DS 0.1 μg/ml): 19
- Number of plaques per dish ([4]; DS 1 μg/ml): 14
- Inhibition ([4]; DS 10 μg/ml): 52%
- Number of plaques per dish ([4]; DS 10 μg/ml): 17
- Inhibition ([4]; DS 100 μg/ml): 54%
- Number of plaques per dish ([4]; DS 100 μg/ml): 16
- Number of plaques per dish ([4]; DS 500 μg/ml): 0

Compound: Chondroitin-6-sulfate
- Infected cell (%) [2, 7]: 100%
- Infected cell (%) [2, 8]: 100%

Compound: N--acetylglucosamine polysulfate
- Infected cell (%) [2, 7]: 100%
- Infected cell (%) [2, 8]: 100%
- Infected cell (%) [2, 9]: 100%

Compound: sodium chondroitin sulfate
- acute toxicity (LD50) ([5]; intraperitoneally): ≥ 4,000 mg/kg
- acute toxicity (LD50) ([5]; orally): ≥ 7,500 mg/kg

Compound: Sodium dextran sulfate [Sodium dextran sulfate (molecular weight: 5000, S-content: 1]
- Infected cell (%) ([2]; 10 μg/ml, 6th day; control 100%; S-content ≈13), 8640 min): 18%
- Infected cell (%) [2, 8]: 0%
- Cell number ([6]; 1 μg/ml): 123 × 10^4 cells/ml
- Cell number ([6]; 10 μg/ml): 127 × 10^4 cells/ml
- Viability ([6]; 10 μg/ml): 92%
- Cell number ([6]; 100 μg/ml): 121 × 10^4 cells/ml
- Viability ([6]; 100 μg/ml): 93%

Compound: Chondroitin-4-sulfate
- Infected cell (%) [2, 7]: 90%
- Infected cell (%) [2, 8]: 80%

Compound: Keratan sulfate
- Infected cell (%) [2, 7]: 100%
- Infected cell (%) [2, 8]: 60%

Compound: OC[C@H]1O[C@H](OC[C@H]2O[C@H](O[C@]3(CO)O[C@H](CO)[C@@H](O)[C@@H]3O)[C@H](O)[C@@H](O)[C@@H]2O)[C@H](O)[C@@H](O)[C@H]1O [raffinose]
- anti-AIDS virus activity ([2]; 6th day): neither methylcellulose showed any anti-AIDS virus activities

Compound: Fucoidin
- Infected cell (%) [2, 7]: 32%
- Infected cell (%) [2, 8]: 1%

Compound: colominic acid
- anti-AIDS virus activity ([2]; 6th day): neither methylcellulose showed any anti-AIDS virus activities

Compound: Alginic acid sulfate
- Infected cell (%) [2, 7]: 7%
- Infected cell (%) [2, 8]: 4%
- anti-AIDS virus activity ([2]; 6th day): particularly strong anti-AIDS virus activities

Compound: Dextran sulfate [Dextran sulfate (molecular weight 8,000, S-content ≈14)]
- Infected cell (%) [2, 10]: 25%
- Infected cell (%) [2, 11]: 0%

Compound: Sodium dextran sulfate [Sodium dextran sulfate (molecular weight: 500,000 S-content:]
- Infected cell (%) ([2]; 10 μg/ml, 6th day; control 100%; S-content ≈16), 8640 min): 20%
- Infected cell (%) [2, 8]: 0%

Compound: Dextran sulfate [Dextran sulfate (molecular weight 3,500, S-content 6)]
- Infected cell (%) [2, 10]: 100%
- Infected cell (%) [2, 11]: 82%
- Infected cell (%) [2, 9]: 1%

Compound: Chitosan
- Infected cell (%) [2, 7]: 100%
- Infected cell (%) [2, 8]: 100%

Compound: Chondroitin-4-sulfate polysulfate
- Infected cell (%) [2, 7]: 2%
- Infected cell (%) [2, 8]: 1%
- anti-AIDS virus activity ([2]; 6th day): particularly strong anti-AIDS virus activities

Compound: inulin
- anti-AIDS virus activity ([2]; 6th day): neither methylcellulose showed any anti-AIDS virus activities

Compound: Chondroitin
- Infected cell (%) [2, 7]: 100%
- Infected cell (%) [2, 8]: 100%

Compound: .iota.-Carrageenan
- Infected cell (%) [2, 7]: 100%
- Infected cell (%) [2, 8]: 31%

Compound: Agarose
- Infected cell (%) [2, 7]: 100%
- Infected cell (%) [2, 8]: 100%

Compound: Alginic acid
- Infected cell (%) [2, 7]: 100%
- Infected cell (%) [2, 8]: 100%

Compound: dextran sulfate
- anti-AIDS virus activity ([2]; 6th day): particularly strong anti-AIDS virus activities

Compound: Chondroitin-6-sulfate polysulfate
- Infected cell (%) [2, 7]: 2%
- Infected cell (%) [2, 8]: 1%
- anti-AIDS virus activity ([2]; 6th day): particularly strong anti-AIDS virus activities
